Drawing on patent US11655235B2, “Pyrrolidine and piperidine compounds” (YUHAN CORPORATION, priority 2019, dated 2023), this text covers IC50 for 18 molecules.

Type in all cases: biochemical
Assay [1] concerns the target T1, Recombinant human FAP (Homo sapiens, UniProt Q12884).
T1 construct: purchased R&D systems
T1 sequence (Q12884 1-760): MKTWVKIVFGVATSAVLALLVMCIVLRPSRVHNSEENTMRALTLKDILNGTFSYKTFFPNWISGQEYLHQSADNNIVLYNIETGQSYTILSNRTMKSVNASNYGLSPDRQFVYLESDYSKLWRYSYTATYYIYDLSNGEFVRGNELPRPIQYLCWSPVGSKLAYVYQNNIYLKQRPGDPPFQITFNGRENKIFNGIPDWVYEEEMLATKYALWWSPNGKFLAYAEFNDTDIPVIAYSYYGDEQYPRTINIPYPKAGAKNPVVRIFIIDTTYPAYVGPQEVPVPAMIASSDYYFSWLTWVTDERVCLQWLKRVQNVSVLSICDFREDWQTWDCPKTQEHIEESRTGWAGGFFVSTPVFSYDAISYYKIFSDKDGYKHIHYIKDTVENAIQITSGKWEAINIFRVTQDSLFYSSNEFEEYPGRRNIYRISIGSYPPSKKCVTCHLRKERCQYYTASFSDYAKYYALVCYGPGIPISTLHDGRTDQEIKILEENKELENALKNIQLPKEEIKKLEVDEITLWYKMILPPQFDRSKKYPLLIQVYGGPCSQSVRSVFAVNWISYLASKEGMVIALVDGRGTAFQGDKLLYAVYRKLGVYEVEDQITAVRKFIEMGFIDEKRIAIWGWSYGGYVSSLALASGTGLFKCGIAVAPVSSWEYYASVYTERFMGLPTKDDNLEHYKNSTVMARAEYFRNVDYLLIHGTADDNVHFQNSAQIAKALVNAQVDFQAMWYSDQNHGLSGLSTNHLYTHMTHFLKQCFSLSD
Kind of assay: FAP FRET assay, FGF21-sequence FRET peptide substrate. The settings on record: FRET peptide with human FGF21 sequence, 6 μM, 37° C. The procedure, abridged: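 FRET peptide bearing human FGF21 sequence (6 μM final) cleaved by 10 ng recombinant human FAP at 37° C in HEPES pH 7.2 buffer with NaCl, BSA and EDTA, DMSO up to 0.1%. Signal-rate decrease versus uninhibited control fitted to a four-variable logistic model for IC50.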

Assay [2] has as its target DPP4 (Homo sapiens, UniProt P27487). As to the kind of experiment: DPP4 inhibition, fluorogenic substrate H-Gly-Pro-AMC. Further details: purchased R&D Systems. The settings on record: recombinant human DPP4.
Assay [3] has as its target T2, recombinant human DPP7 (Homo sapiens, UniProt Q9UHL4).
T2 construct: purchased R&D Systems
As to the kind of experiment: DPP7 inhibition, fluorogenic substrate Lys-Pro-AMC. The note with it: recombinant human DPP7. As for the experimental part: The compounds according to the present technology were evaluated in terms of the inhibitory effect on the activity of dipeptidyl peptidases including FAP by using a substrate producing fluorescent substances upon enzymatic decomposition. The test was conducted at 25° C. to get a final reaction volume of 100 μL in a 96 black well plate. […] Briefly, the test compounds were dissolved in dimethyl sulfoxide (DMSO) at a concentration of 20 mM and then subjected to serial dilution, thereby creating an 8 point curve. As for the control group, a 6 point curve created by serial dilution of Talabostat in the same buffer solution was used. Fluorescence intensity was measured using a microplate reader (Flexstation3, Molecular Devices) under the wavelength condition exciting at 380 nm and reading the emission at 460 nm. The inhibitory effect of the test compounds was measured as a decrease (%) in the signal rate as compared to the control group without any inhibitor. Data was fixed to a logistic model with four variables and IC50 value was calculated using GraphPad Prism program. As for recombinant human DPP4 (R&D Systems), 25 mM tris (pH 8.0) buffer as a buffer solution and H-Gly-Pro-AMC (Bachem) as a substrate were used. As for recombinant human DPP7 (R&D Systems), 25 mM MES (pH 6.0) buffer as a buffer solution and Lys-Pro-AMC (Bachem) as a substrate were used. As for recombinant human DPP8 (PBS Bioscience), as a buffer solution, a 10 mM tris (pH 7.4) buffer comprising 10 mM of magnesium chloride and 0.05% of Tween 20, and Z-Ala-Pro-AMC (BPS Bioscience) as a substrate were used. As for recombinant human DPP9 (R&D Systems), a 25 mM tris (pH 8.0) buffer as a buffer solution and H-Gly-Pro-AMC (Bachem) as a substrate were used. As for recombinant human PREP (R&D System), as a buffer solution, a 25 mM tris (pH 7.5) buffer comprising 250 mM sodium chloride and 2.5 mM DTT (Dithiolthreitol), and Z-Gly-Pro-AMC (Bachem) as a substrate were used. The evaluation was made by using 10 ng of DPP4, PDD7, and PREP, 20 ng of DPP8, and 50 ng of DPP9 based on the final reaction. In the evaluation of DPP4, the test compounds were subjected to serial dilution in a buffer under the condition containing up to 0.1% of DMSO. In the evaluation of DPP7, DPP8, DPP9, and PREP, the test compounds were subjected to serial dilution in each buffer under the condition containing up to 0.5% of DMSO.

Sequence of DPP4 (P27487 whole entry): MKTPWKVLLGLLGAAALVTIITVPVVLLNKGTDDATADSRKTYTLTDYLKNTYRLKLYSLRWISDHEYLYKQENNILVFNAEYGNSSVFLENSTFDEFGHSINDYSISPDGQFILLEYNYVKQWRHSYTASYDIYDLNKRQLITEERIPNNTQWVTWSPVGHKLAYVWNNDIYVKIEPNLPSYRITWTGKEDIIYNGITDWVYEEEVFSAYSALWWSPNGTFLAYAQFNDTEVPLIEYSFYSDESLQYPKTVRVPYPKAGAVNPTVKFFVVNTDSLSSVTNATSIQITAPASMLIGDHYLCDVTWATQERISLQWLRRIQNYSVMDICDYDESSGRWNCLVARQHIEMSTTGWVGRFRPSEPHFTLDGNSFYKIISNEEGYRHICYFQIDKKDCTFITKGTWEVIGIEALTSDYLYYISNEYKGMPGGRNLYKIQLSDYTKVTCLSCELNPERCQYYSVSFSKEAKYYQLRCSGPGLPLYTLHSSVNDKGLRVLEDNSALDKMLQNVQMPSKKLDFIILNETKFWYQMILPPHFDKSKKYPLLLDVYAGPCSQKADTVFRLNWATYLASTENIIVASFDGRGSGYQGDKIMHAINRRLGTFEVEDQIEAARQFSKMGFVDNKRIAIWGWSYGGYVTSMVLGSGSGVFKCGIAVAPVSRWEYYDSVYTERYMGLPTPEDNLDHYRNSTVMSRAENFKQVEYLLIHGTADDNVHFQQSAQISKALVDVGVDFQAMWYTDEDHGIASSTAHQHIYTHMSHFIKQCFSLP

Regarding `N#C[C@@H]1CCCN1C(=O)CN1CCC(Oc2ccc(Cl)c3ncccc23)CC1` [Example 431, (2S)-1-[2-[4-[(8-chloro-5-quinolyl)oxy]-1-piperidyl]acetyl]pyrrolidine-2-carbonitrile], the results for the IC50 in assay [1], in assay [2] and in assay [3] were 12.2 nM, 19300 nM and 6340 nM, respectively.
For `N#C[C@@H]1C[C@H](F)CN1C(=O)CN1CCC(Oc2ccnc3c(F)cccc23)CC1` [Example 435, (2S,4S)-4-fluoro-1-[2-[4-[(8-fluoro-4-quinolyl)oxy]-1-piperidyl]acetyl]pyrrolidine-2-carbonitrile], in that order: 3.2 nM, 4830 nM and 6560 nM.
Turning to `N#C[C@@H]1CCCN1C(=O)CN1CC[C@H](Nc2ccc(C(=O)Nc3ccccc3)c3ncccc23)C1` [Example 287, N-phenyl-5-[[(3S)-1-[2-oxo-2-[(2S)-2-cyanopyrrolidin-1-yl]ethyl]pyrrolidin-3-yl]amino]quinoline-8-carboxamide], the IC50 (usually the concentration needed to halve the response being measured) in assay [1] worked out at 1.2 nM; in assay [2] it was 7580 nM; in assay [3], 904 nM.
With `N#C[C@@H]1CCCN1C(=O)CN1CC[C@@H](Nc2cccc3ncc(F)cc23)C1` [Example 209, (2S)-1-[2-[(3R)-3-[(3-fluoro-5-quinolyl)amino]pyrrolidin-1-yl]acetyl]pyrrolidine-2-carbonitrile], the IC50 in assay [1] came out at 1.7 nM; in assay [2], 4430 nM; in assay [3], 7010 nM.
For `N#C[C@@H]1C[C@H](F)CN1C(=O)CN1CC[C@H](Nc2ccc(C(=O)Nc3ccccn3)c3ncccc23)C1` [Example 294, N-(2-pyridyl)-5-[[(3S)-1-[2-oxo-2-[(2S,4S)-2-cyano-4-fluoro-pyrrolidin-1-yl]ethyl]pyrrolidin-3-yl]amino]quinoline-8-carboxamide], the half-maximal inhibitory concentration (IC50) turned out to be 0.6 nM in assay [1], 439 nM in assay [2] and 16.6 nM in assay [3].
For `N#C[C@@H]1CCCN1C(=O)CN1CCC(Oc2cccc3ncc(F)cc23)CC1` [Example 429, (2S)-1-[2-[4-[(3-fluoro-5-quinolyl)oxy]-1-piperidyl]acetyl]pyrrolidine-2-carbonitrile], in that order: 6.9 nM, 37200 nM and 3970 nM.
For `N#C[C@@H]1C[C@H](F)CN1C(=O)CN1CC[C@@H](Nc2cnc3ncccc3c2)C1` [Example 171, (2S,4S)-4-fluoro-1-[2-[(3R)-3-(1,8-naphthyridin-3-ylamino)pyrrolidin-1-yl]acetyl]pyrrolidine-2-carbonitrile], in that order: 8.2 nM, 2190 nM and 2790 nM.
For `N#C[C@@H]1C[C@H](F)CN1C(=O)CN1CC[C@H](Nc2ccc(C(=O)Nc3ccccc3)c3ncccc23)C1` [Example 283, N-phenyl-5-[[(3S)-1-[2-oxo-2-[(2S,4S)-2-cyano-4-fluoro-pyrrolidin-1-yl]ethyl]pyrrolidin-3-yl]amino]quinoline-8-carboxamide], in that order: 1 nM, 1210 nM and 74.3 nM.
`N#C[C@@H]1C[C@H](F)CN1C(=O)CN1CC[C@@H](Nc2ccc(F)c3ncccc23)C1` [Example 175, (2S,4S)-4-fluoro-1-[2-[(3R)-3-[(8-fluoro-5-quinolyl)amino]pyrrolidin-1-yl]acetyl]pyrrolidine-2-carbonitrile]: the half-inhibitory concentration (IC50) in assay [1] came out at 3.5 nM; in assay [2], 1690 nM; in assay [3] it was 4240 nM.
Consider `N#C[C@@H]1C[C@H](F)CN1C(=O)CN1CC[C@@H](Nc2ccnc3ccc(F)cc23)C1` [Example 191, (2S,4S)-4-fluoro-1-[2-[(3R)-3-[(6-fluoro-4-quinolyl)amino]pyrrolidin-1-yl]acetyl]pyrrolidine-2-carbonitrile], for which the results for the half-inhibitory concentration (IC50) in assay [1] and in assay [2] were 19.4 nM and 3220 nM, respectively.
Consider `CN(C)C(=O)c1ccc(NC2CCN(CC(=O)N3C[C@@H](F)C[C@H]3C#N)CC2)c2cccnc12` [Example 391, N,N-dimethyl-5-[[1-[2-oxo-2-[(2S,4S)-2-cyano-4-fluoro-pyrrolidin-1-yl]ethyl]-4-piperidyl]amino]quinoline-8-carboxamide], for which the values for the concentration for half-maximal inhibition (IC50) in assay [1] and in assay [2] were 27.5 nM and 3500 nM, respectively.
For `COc1ccnc2ccc(NC3CCN(CC(=O)N4C[C@@H](F)C[C@H]4C#N)CC3)cc12` [Example 382, (2S,4S)-4-fluoro-1-[2-[4-[(4-methoxy-6-quinolyl)amino]-1-piperidyl]acetyl]pyrrolidine-2-carbonitrile], the results for the half-inhibitory concentration (IC50) in assay [1] and in assay [2] were 80 nM and 3150 nM, respectively.
For `Cc1ccc2ncc(NC3CCN(CC(=O)N4C[C@@H](F)C[C@H]4C#N)CC3)cc2c1` [Example 363, (2S,4S)-4-fluoro-1-[2-[4-[(6-methyl-3-quinolyl)amino]-1-piperidyl]acetyl]pyrrolidine-2-carbonitrile], in that order: 30.6 nM and not below 10000 nM.
As to `COc1ccc2ncccc2c1N[C@@H]1CCN(CC(=O)N2C[C@@H](F)C[C@H]2C#N)C1` [Example 176, (2S,4S)-4-fluoro-1-[2-[(3R)-3-[(6-methoxy-5-quinolyl)amino]pyrrolidin-1-yl]acetyl]pyrrolidine-2-carbonitrile], the IC50 in assay [1] amounted to 22.2 nM; in assay [2], 1510 nM.
For `CNC(=O)c1ccc(NC2CCN(CC(=O)N3CCC[C@H]3C#N)CC2)c2cccnc12` [Example 395, N-methyl-5-[[1-[2-oxo-2-[(2S)-2-cyanopyrrolidin-1-yl]ethyl]-4-piperidyl]amino]quinoline-8-carboxamide], in that order: 18.6 nM and 6040 nM.
For `N#C[C@@H]1C[C@H](F)CN1C(=O)CN1CC[C@@H](Nc2ccnc3ccc(Cl)cc23)C1` [Example 192, (2S,4S)-4-fluoro-1-[2-[(3R)-3-[(6-chloro-4-quinolyl)amino]pyrrolidin-1-yl]acetyl]pyrrolidine-2-carbonitrile], in that order: 15.6 nM and 5560 nM.
For `Cc1cnc2ccc(N[C@@H]3CCN(CC(=O)N4CCC[C@H]4C#N)C3)cc2c1` [Example 218, (2S)-1-[2-[(3R)-3-[(3-methyl-6-quinolyl)amino]pyrrolidin-1-yl]acetyl]pyrrolidine-2-carbonitrile], in that order: 26.6 nM and 17300 nM.
Consider `Cc1ccc2nccc(N[C@@H]3CCN(CC(=O)N4CCC[C@H]4C#N)C3)c2c1` [Example 223, (2S)-1-[2-[(3R)-3-[(6-methyl-4-quinolyl)amino]pyrrolidin-1-yl]acetyl]pyrrolidine-2-carbonitrile], for which the values for the concentration for half-maximal inhibition (IC50) in assay [1] and in assay [2] were 13.1 nM and 92500 nM, respectively.
